# Test results: US20130053430A1, “MODULATION OF CETP EXPRESSION” (Isis Pharmaceuticals, Inc., priority 2010, published 2013)
# Strand notation (5' to 3'): a small letter for the sugar, then the base; units joined by * are phosphorothioate-linked, units joined directly phosphodiester-linked; [ ] holds rarer units or linkages, { } end groups; capitals alone tell only the bases. e = 2'-O-(2-methoxyethyl) (MOE); [5mC] = 5-methylcytosine; d = 2'-deoxy (DNA)
# How the values were obtained:
# human CETP mRNA [1] = experiment: Antisense inhibition of human CETP mRNA in SW872 liposarcoma cells (Example 1); assay type: cell-based; conditions: 150 nM antisense oligonucleotide, lipofectin, ~24 hours, relative to untreated control cells
# Protocol: Antisense oligonucleotides targeted to a CETP nucleic acid were tested for their effect on CETP mRNA transcript in vitro. Cultured SW872 liposarcoma cells at a density of 50,000 cells per well in a 24-well plate were transfected using lipofectin reagent with 150 nM antisense oligonucleotide. After approximately 24 hours, RNA was isolated from the cells and CETP mRNA levels were measured by quantitative real-time PCR. A human primer probe set (forward sequence […], designated herein as SEQ ID NO: 38; reverse sequence GGCTCACGCCTTTGCTGTT, designated herein as SEQ ID NO: 39; probe sequence […], designated herein as SEQ ID NO: 40) was used to quantitate CETP mRNA. CETP mRNA transcript levels were adjusted according to total RNA content, as measured by the house-keeping gene, GAPDH mRNA levels. GAPDH was measured using a primer probe set with the sequence as set forth in SEQ ID NOs: 10, 11, 13. Results are presented as percent inhibition of CETP, relative to untreated control cells.
# The antisense oligonucleotides in Table 3 are 5-10-5 gapmers, where the gap segment comprises ten 2′-deoxynucleosides and each wing segment comprises five 2′-MOE nucleosides. Each nucleotide in the 5′ wing segment and each nucleotide in the 3′ wing segment has a 2′-MOE modification. The internucleoside linkages throughout each gapmer are phosphorothioate (P═S) linkages. All cytosine residues throughout each gapmer are 5-methylcytosines. ‘Target start site’ indicates the 5′-most nucleotide to which the antisense oligonucleotide is targeted. ‘Target stop site’ indicates the 3′-most nucleotide to which the antisense oligonucleotide is targeted. All the antisense oligonucleotides listed in Table 3 target human CETP mRNA, designated herein as SEQ ID NO: 1 (GENBANK Accession No. M30185.1).
# human CETP mRNA [2] = experiment: Antisense inhibition of human CETP mRNA in primary hepatocytes from huCETP transgenic mice (Example 4); assay type: cell-based, mouse; conditions: cytofectin, ~24 hours
# Protocol: Transgenic mice expressing human CETP, controlled by its natural flanking region, increase expression of this gene in response to hypercholesterolemia (Jiang, X. C. et al., J. Clin. Invest. 1992. 90: 1290-1295). These mice were utilized for the following studies. Antisense oligonucleotides targeted to a CETP nucleic acid and described in Example 1 were tested for their effect on CETP mRNA transcript in vitro. Cultured primary hepatocytes from huCETP transgenic mice, at a density of 17,500 cells per well in a 96-well plate, were transfected using cytofectin reagent with 100 nM or 200 nM antisense oligonucleotide. After approximately 24 hours, RNA was isolated from the cells and CETP mRNA levels were measured by quantitative real-time PCR. CETP mRNA transcript levels were adjusted according to total RNA content, as measured by the house-keeping gene, GAPDH mRNA levels. Results are presented in Table 6 as percent inhibition of CETP, relative to untreated control cells.
Substance,% inhibition (human CETP mRNA [1]) [%],Percent inhibition of human CETP mRNA (human CETP mRNA [2]; 100 nM) [%],Percent inhibition of human CETP mRNA (human CETP mRNA [2]; 200 nM) [%]
ISIS 349466: 5-10-5 MOE gapmer CCACAGACACGTTCTGAATG (e[5mC]*e[5mC]*eA*e[5mC]*eA*dG*dA*d[5mC]*dA*d[5mC]*dG*dT*dT*d[5mC]*dT*eG*eA*eA*eT*eG),15,57,81
ISIS 349467: 5-10-5 MOE gapmer GTGGTGTAGCCATACTTCAG (eG*eT*eG*eG*eT*dG*dT*dA*dG*d[5mC]*d[5mC]*dA*dT*dA*d[5mC]*eT*eT*e[5mC]*eA*eG),35,57,51
ISIS 349468: 5-10-5 MOE gapmer TCAATACCCAGCCACCAGGC (eT*e[5mC]*eA*eA*eT*dA*d[5mC]*d[5mC]*d[5mC]*dA*dG*d[5mC]*d[5mC]*dA*d[5mC]*e[5mC]*eA*eG*eG*e[5mC]),33,53,50
ISIS 349469: 5-10-5 MOE gapmer TCTCGAAGTCAATGGACTGA (eT*e[5mC]*eT*e[5mC]*eG*dA*dA*dG*dT*d[5mC]*dA*dA*dT*dG*dG*eA*e[5mC]*eT*eG*eA),70,40,66
ISIS 349470: 5-10-5 MOE gapmer GAGGTCAATGGCAGAGTCGA (antisense eG*eA*eG*eG*eT*d[5mC]*dA*dA*dT*dG*dG*d[5mC]*dA*dG*dA*eG*eT*e[5mC]*eG*eA),59,64,49
ISIS 349471: 5-10-5 MOE gapmer GTCAGCTGTGTGTTGATCTG (eG*eT*e[5mC]*eA*eG*d[5mC]*dT*dG*dT*dG*dT*dG*dT*dT*dG*eA*eT*e[5mC]*eT*eG),32,70,66
ISIS 349472: 5-10-5 MOE gapmer GCACTCTACCAGAGTCACAG (eG*e[5mC]*eA*e[5mC]*eT*d[5mC]*dT*dA*d[5mC]*d[5mC]*dA*dG*dA*dG*dT*e[5mC]*eA*e[5mC]*eA*eG),39,25,45
ISIS 349473: 5-10-5 MOE gapmer AGCAGCTTATGGAAAGACAG (eA*eG*e[5mC]*eA*eG*d[5mC]*dT*dT*dA*dT*dG*dG*dA*dA*dA*eG*eA*e[5mC]*eA*eG),72,55,61
ISIS 349474: 5-10-5 MOE gapmer CGCTCCCCTTGGAGATGCAG (e[5mC]*eG*e[5mC]*eT*e[5mC]*d[5mC]*d[5mC]*d[5mC]*dT*dT*dG*dG*dA*dG*dA*eT*eG*e[5mC]*eA*eG),76,64,48
ISIS 349475: 5-10-5 MOE gapmer GCTTGATCCACCCAGGCTCT (eG*e[5mC]*eT*eT*eG*dA*dT*d[5mC]*d[5mC]*dA*d[5mC]*d[5mC]*d[5mC]*dA*dG*eG*e[5mC]*eT*e[5mC]*eT),5,0,0
ISIS 349476: 5-10-5 MOE gapmer CCTTCAGGACCAGCTTCAGG (e[5mC]*e[5mC]*eT*eT*e[5mC]*dA*dG*dG*dA*d[5mC]*d[5mC]*dA*dG*d[5mC]*dT*eT*e[5mC]*eA*eG*eG),59,49,60
ISIS 349477: 5-10-5 MOE gapmer GATCTCTTTGCAGATCTGTC (eG*eA*eT*e[5mC]*eT*d[5mC]*dT*dT*dT*dG*d[5mC]*dA*dG*dA*dT*e[5mC]*eT*eG*eT*e[5mC]),41,44,47
ISIS 349478: 5-10-5 MOE gapmer ATGATGTTAGAGATGACGTT (eA*eT*eG*eA*eT*dG*dT*dT*dA*dG*dA*dG*dA*dT*dG*eA*e[5mC]*eG*eT*eT),48,6,33
ISIS 349479: 5-10-5 MOE gapmer CTGGCAGCCCTTGTCTGGAC (e[5mC]*eT*eG*eG*e[5mC]*dA*dG*d[5mC]*d[5mC]*d[5mC]*dT*dT*dG*dT*d[5mC]*eT*eG*eG*eA*e[5mC]),67,80,66
ISIS 349480: 5-10-5 MOE gapmer TGTCTCCATCTGAAAGGATG (eT*eG*eT*e[5mC]*eT*d[5mC]*d[5mC]*dA*dT*d[5mC]*dT*dG*dA*dA*dA*eG*eG*eA*eT*eG),74,46,40
ISIS 349481: 5-10-5 MOE gapmer AGGTAGGAGGCTGTGATGAC (eA*eG*eG*eT*eA*dG*dG*dA*dG*dG*d[5mC]*dT*dG*dT*dG*eA*eT*eG*eA*e[5mC]),66,79,65
ISIS 349482: 5-10-5 MOE gapmer TGAAATGACCCTTGTGATGG (eT*eG*eA*eA*eA*dT*dG*dA*d[5mC]*d[5mC]*d[5mC]*dT*dT*dG*dT*eG*eA*eT*eG*eG),51,11,65
ISIS 349484: 5-10-5 MOE gapmer ACCAGAAGTACAGCATGCGG (eA*e[5mC]*e[5mC]*eA*eG*dA*dA*dG*dT*dA*d[5mC]*dA*dG*d[5mC]*dA*eT*eG*e[5mC]*eG*eG),38,34,52
ISIS 349486: 5-10-5 MOE gapmer GAAAGCTACCTTGGCCAGCG (eG*eA*eA*eA*eG*d[5mC]*dT*dA*d[5mC]*d[5mC]*dT*dT*dG*dG*d[5mC]*e[5mC]*eA*eG*e[5mC]*eG),55,72,53
ISIS 349487: 5-10-5 MOE gapmer CCCATCAGGCTGAGCATGAG (e[5mC]*e[5mC]*e[5mC]*eA*eT*d[5mC]*dA*dG*dG*d[5mC]*dT*dG*dA*dG*d[5mC]*eA*eT*eG*eA*eG),73,84,68
ISIS 349488: 5-10-5 MOE gapmer GCACTGCCTTGAACTCGTCT (eG*e[5mC]*eA*e[5mC]*eT*dG*d[5mC]*d[5mC]*dT*dT*dG*dA*dA*d[5mC]*dT*e[5mC]*eG*eT*e[5mC]*eT),47,77,87
ISIS 349489: 5-10-5 MOE gapmer GTTGAAGCCCCAGGTCTCCA (eG*eT*eT*eG*eA*dA*dG*d[5mC]*d[5mC]*d[5mC]*d[5mC]*dA*dG*dG*dT*e[5mC]*eT*e[5mC]*e[5mC]*eA),48,47,67
ISIS 349491: 5-10-5 MOE gapmer AGCCGCCGACAACCTCTTGG (eA*eG*e[5mC]*e[5mC]*eG*d[5mC]*d[5mC]*dG*dA*d[5mC]*dA*dA*d[5mC]*d[5mC]*dT*e[5mC]*eT*eT*eG*eG),45,60,74
